Data reported in publication PMC10076467 (EJNMMI Research, 2023).
Where two headings read alike, the source gives them in different places.

What was measured:
GluN2B receptors [1] = biological target: T1, GluN2B receptors (Rattus norvegicus, UniProt P35439+Q00960); test: ED50 for pre-blocking of GluN2B radioligand uptake in rat whole brain (PET); type: in vivo; conditions: for ED50 in rat whole brain in vivo ^11C-(−)-NR2B-Me / ED50 in rat whole brain in vivo ^11C-(+)-NR2B-Me: pre-blocking, AUC 20-90 min; for ED50 in rat whole brain in vivo ^11C-(−)-NR2B-Me: radioligand ^11C-(−)-NR2B-Me; for effect of pre-administration on whole rat brain radioactivity uptake of GluN2B radioligands: ^11C-NR2B-Me enantiomers (also ^11C-(S)-NR2B-SMe); for ED50 in rat whole brain in vivo ^11C-(+)-NR2B-Me: radioligand ^11C-(+)-NR2B-Me
T1 construct: from tissue; host or cells: brain of living male rats (PET imaging)
T1 sequence (Q00960 27-1482, other chains not shown): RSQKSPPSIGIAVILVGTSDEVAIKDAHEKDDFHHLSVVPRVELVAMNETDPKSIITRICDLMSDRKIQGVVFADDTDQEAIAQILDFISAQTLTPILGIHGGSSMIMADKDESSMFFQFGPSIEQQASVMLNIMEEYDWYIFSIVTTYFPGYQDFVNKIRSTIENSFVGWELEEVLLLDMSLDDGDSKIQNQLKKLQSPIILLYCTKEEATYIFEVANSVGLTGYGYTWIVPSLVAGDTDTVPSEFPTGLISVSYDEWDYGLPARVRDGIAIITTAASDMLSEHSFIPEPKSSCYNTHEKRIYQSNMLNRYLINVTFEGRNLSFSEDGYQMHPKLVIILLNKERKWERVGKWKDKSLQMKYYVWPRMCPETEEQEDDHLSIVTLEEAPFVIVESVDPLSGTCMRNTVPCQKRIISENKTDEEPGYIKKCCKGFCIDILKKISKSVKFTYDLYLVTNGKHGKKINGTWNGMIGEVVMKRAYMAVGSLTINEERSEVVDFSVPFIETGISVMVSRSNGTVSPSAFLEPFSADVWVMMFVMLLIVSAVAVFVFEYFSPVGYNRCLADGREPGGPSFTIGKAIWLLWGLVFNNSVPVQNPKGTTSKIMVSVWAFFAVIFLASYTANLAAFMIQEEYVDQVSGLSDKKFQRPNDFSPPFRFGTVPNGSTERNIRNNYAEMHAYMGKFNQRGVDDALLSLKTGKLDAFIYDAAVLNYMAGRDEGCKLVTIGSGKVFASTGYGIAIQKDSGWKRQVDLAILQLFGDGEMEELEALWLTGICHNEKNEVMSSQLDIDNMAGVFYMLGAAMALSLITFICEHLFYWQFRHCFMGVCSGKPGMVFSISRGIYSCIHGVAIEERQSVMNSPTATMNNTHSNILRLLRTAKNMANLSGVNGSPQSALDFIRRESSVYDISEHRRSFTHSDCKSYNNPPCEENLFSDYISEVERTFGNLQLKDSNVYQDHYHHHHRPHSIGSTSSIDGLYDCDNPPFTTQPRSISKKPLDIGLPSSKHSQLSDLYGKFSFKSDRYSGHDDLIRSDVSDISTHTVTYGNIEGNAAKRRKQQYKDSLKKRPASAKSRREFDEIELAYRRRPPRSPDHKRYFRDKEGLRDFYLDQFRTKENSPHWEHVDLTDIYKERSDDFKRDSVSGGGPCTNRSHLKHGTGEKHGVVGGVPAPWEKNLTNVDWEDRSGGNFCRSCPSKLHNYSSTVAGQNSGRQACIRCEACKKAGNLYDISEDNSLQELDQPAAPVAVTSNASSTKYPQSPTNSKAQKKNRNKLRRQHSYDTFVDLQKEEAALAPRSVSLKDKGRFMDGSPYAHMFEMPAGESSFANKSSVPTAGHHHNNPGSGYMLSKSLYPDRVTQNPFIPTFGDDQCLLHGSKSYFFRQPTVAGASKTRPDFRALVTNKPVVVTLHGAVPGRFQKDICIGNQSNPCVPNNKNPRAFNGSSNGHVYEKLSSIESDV
Procedure: (§1) For radioligand injection, a polyethylene catheter (PE 10) was inserted into the penile vein of a male rat and then secured with tissue adhesive and tape. […] Body temperature was monitored with a rectal probe. All PET scans were performed on a microPET Focus 220 scanner (Siemens Medical Solutions) (7,8). Data were acquired in listmode and reconstructed with Fourier rebinning + 2D filtered backprojection. A transmission scan was acquired before radioligand injection for attenuation correction. Dynamic scanning began at the time of a one-minute intravenous bolus injection of the radioligand under study (55 ± 19 MBq; volume 0.2 to 1.0 mL). The injected mass dose was 3 ± 1 nmol/kg. Challenge agents were administered intravenously 10 minutes before the radioligand for pre-blocking studies or 10 minutes after the radioligand for displacement studies. Tomographic images were analyzed with pixel-wise modeling computer software (PMOD 2.6; PMOD Group). Regions-of-interest in the brain were delineated, and time-activity curves calculated as SUV versus time.
(§2) Pre-blocking and displacement experiments were performed to assess radioligand target engagement and radioligand selectivity in vivo. […] Areas-under the curve (AUCs) from time-activity curves between 20 and 90 minutes were calculated for each radioligand. AUCs obtained from the same production of radioligand were scaled to the value (or mean value) for the baseline experiment to give relative values (relative AUC20–90 min). […] Where data permitted, the dose-response curves were fitted with GraphPad Prism software (version 8.1.1; GraphPad) to estimate the ED50 values. A dummy value of 100 pmol per kg body weight was used for zero concentration of the challenge agent in the construction of these dose-response curves. Numerical data are expressed as mean ± S.D. for n>2, or as mean and range for n = 2.

GluN2B = biological target: T2, GluN2B (Homo sapiens, UniProt Q05586+Q13224); conditions: cited from earlier work
T2 construct: expressed in transfected cells; host or cells: transiently transfected mouse fibroblast cells (membrane homogenate)
T2 sequence (Q13224 27-1484, species assumed, other chains not shown): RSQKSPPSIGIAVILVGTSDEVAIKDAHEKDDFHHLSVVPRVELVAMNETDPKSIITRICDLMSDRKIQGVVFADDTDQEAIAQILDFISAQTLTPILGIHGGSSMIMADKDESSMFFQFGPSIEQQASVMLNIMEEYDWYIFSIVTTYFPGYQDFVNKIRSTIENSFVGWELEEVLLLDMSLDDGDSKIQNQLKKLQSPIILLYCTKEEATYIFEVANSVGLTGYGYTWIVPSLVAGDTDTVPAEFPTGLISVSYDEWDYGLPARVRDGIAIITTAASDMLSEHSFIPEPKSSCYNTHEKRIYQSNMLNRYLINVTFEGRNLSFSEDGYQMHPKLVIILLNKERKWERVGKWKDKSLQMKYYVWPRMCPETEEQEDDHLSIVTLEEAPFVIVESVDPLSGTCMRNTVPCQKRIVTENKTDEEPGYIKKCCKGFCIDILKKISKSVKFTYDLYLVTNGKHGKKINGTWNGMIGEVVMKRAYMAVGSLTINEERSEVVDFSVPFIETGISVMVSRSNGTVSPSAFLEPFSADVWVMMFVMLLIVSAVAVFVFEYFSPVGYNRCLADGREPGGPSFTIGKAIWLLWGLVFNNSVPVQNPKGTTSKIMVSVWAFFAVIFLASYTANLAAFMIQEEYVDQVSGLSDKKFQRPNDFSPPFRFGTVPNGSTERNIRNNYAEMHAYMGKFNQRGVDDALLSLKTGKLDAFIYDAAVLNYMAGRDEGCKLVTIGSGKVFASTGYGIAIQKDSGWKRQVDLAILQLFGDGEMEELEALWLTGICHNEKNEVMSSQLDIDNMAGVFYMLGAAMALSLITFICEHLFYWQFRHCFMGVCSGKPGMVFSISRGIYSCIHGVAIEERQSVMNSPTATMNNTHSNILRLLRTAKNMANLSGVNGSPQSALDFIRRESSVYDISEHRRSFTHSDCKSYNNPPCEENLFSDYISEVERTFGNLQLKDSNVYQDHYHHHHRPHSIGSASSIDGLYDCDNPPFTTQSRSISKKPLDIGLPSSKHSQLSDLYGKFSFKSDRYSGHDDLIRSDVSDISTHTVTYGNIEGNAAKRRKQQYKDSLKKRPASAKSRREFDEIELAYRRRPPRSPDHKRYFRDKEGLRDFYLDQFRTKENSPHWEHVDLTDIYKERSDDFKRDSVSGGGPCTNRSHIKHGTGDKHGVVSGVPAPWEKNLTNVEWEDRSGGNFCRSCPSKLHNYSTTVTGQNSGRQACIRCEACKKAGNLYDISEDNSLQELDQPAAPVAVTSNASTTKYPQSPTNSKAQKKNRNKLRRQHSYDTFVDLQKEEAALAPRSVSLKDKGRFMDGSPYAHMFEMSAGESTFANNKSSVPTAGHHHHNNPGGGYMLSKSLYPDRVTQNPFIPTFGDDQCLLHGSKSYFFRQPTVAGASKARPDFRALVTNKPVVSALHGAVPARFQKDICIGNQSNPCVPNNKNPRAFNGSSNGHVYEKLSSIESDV

GluN2B receptors [2] = biological target: T1, GluN2B receptors; parameters: method as in PMID 31924728; conditions: pre-blocking, radioligand ^11C-(S)-NR2B-SMe; cited from earlier work
σ1 receptor = conditions: reference radioligand ^3H-pentazocine, read-out: Ki for σ1, cited from earlier work
σ2 receptor = conditions: reference radioligand ^3H-DTG, read-out: Ki for σ2, cited from earlier work
GluN2B receptors [3] = biological target: T1, GluN2B receptors; test: PET displacement / pre-blocking of ^11C-NR2B-Me radioligands with Ro-25-6981, Lassen plots; type: in vivo; conditions: for BPND (SUVBL/SUVND−1), whole rat brain: Lassen (SUV) plots; for non-displaceable binding (X-axis intercept of Lassen plots): rat brain, pre-blocking with 0.25 mg/kg Ro-25-6981, on average; for displacement from peak value at 90 min: rat whole brain, Ro-25-6981 0.25 mg/kg i.v. 10 min after radioligand, n = 1
Procedure: as §1, §2

[4] = parameters: method as in PMID 30030340; conditions: rhesus monkeys, PET; cited from earlier work
[5] = rat, 30 min after intravenous injection; cited from earlier work

Cc1ccc(CC2(O)CCN(CCOc3ccc(O)cc3)CC2)cc1 [CO101,244]
ED50 (GluN2B receptors [1]; rat, read-out: ED50 in rat whole brain in vivo ^11C-(+)-NR2B-Me): 0.041 µmol/kg | Ki (GluN2B): 43 nM | ED50 in rat whole brain in vivo ^11C-(S)-NR2B-SMe (GluN2B receptors [2]): 74 nmol/kg

O=C(OCCN1CCOCC1)C1(c2ccccc2)CCCCC1 [PRE-084]
ED50 in rat whole brain in vivo ^11C-(−)-NR2B-Me (GluN2B receptors [1]): > 1000 nmol/kg

C[C@@H](CN1CCC(Cc2ccccc2)CC1)[C@@H](O)c1ccc(O)cc1 [Ro-25-6981]
Ki (GluN2B): 9 nM

COc1ccc(CCN2CCN(CCCc3ccccc3)CC2)cc1OC [SA4503]
effect of pre-administration on whole rat brain radioactivity uptake of GluN2B radioligands (GluN2B receptors [1]): strong pre-blocking effects | ED50 in rat whole brain in vivo ^11C-(+)-NR2B-Me (GluN2B receptors [1]): 41 nmol/kg | ED50 in rat whole brain in vivo ^11C-(−)-NR2B-Me (GluN2B receptors [1]): 43 nmol/kg | Ki (σ1 receptor; ref 38, 43): 4.6 nM | Ki (σ1 receptor; ref 41, 42): 17.4 nM | Ki (σ2 receptor; ref 38, 43): 63 nM | Ki (σ2 receptor; ref 41, 42): 1780 nM

OC12C3C4CC5C6C4C1C6C(C53)N2CCc1cccc(F)c1 (stereo not drawn) [TC1]
effect of pre-administration on whole rat brain radioactivity uptake of GluN2B radioligands (GluN2B receptors [1]): strong pre-blocking effects | ED50 in rat whole brain in vivo ^11C-(+)-NR2B-Me (GluN2B receptors [1]): 64 nmol/kg | ED50 in rat whole brain in vivo ^11C-(−)-NR2B-Me (GluN2B receptors [1]): 48 nmol/kg | Ki (σ1 receptor; ref 40): 10 nM | Ki (σ2 receptor; ref 40): 370 nM

COc1ccc2c(c1)CCN(CCCCc1ccc([11CH3])cc1)CC2O (stereo not drawn) [^11C-(+)-NR2B-Me]
BPND (SUVBL/SUVND−1), whole rat brain (GluN2B receptors [3]): 5 | non-displaceable binding (X-axis intercept of Lassen plots) (GluN2B receptors [3]): about 0.42 SUV | displacement from peak value at 90 min (GluN2B receptors [3]): 46%

COc1ccc2c(c1)CCN(CCCCc1ccc([11CH3])cc1)CC2O (stereo not drawn) [^11C-(−)-NR2B-Me]
BPND (SUVBL/SUVND−1), whole rat brain (GluN2B receptors [3]): 5 | non-displaceable binding (X-axis intercept of Lassen plots) (GluN2B receptors [3]): about 0.42 SUV | displacement from peak value at 90 min (GluN2B receptors [3]): 63%

COc1ccc2c(c1)CCN(CCCCc1ccccc1[18F])C[C@@H]2O [^18F-(R)-OF-Me-NB1]
SUVR relative to cerebellum, cortex [4]: 1.37 | SUVR relative to cerebellum, hippocampus [4]: 1.36 | SUVR relative to cerebellum, striatum [4]: 1.30 | SUVR relative to cerebellum, thalamus [4]: 1.33 | radioactivity in cerebellum as % of that in cortex [5]: 73% | radioactivity in cerebellum as % of that in hippocampus [5]: 74% | radioactivity in cerebellum as % of that in striatum [5]: 77% | radioactivity in cerebellum as % of that in thalamus [5]: 75%

(+)-SKF10047
Ki (σ1 receptor; ref 48): 48 nM | Ki (σ2 receptor; ref 48): 625 nM
